Laboratory results reported in US20210330611A1, “THERAPY FOR NEUROLOGICAL DISEASES/DISORDERS” (priority 2020, published 2021).
Structures can show the parent of a compound that is named as a salt.

Experiments:
[1] = tested on: fibrin- and LPS-induced microglia activation; experiment: cells; assay type: cell-based, rat; conditions: quadrant by fibrin and LPS inhibition in HTS of 1907 compounds
[2] = tested on: fibrin-induced microglia activation; experiment: Image-based assay of fibrin-induced microglia activation (HTS and dose response); assay type: cell-based, rat; conditions: primary microglia HTS, fibrin stimulation, increased cell size (>800 μm^2) as marker of activation; for inhibition at 10 µM: Rattus norvegicus, Microglia, read-out: Fibrin % inhibition
primary rat microglia [3] = experiment: Cell toxicity (dead cells, size <150 μm2) in coated fibrin (cFib) assay; conditions: primary microglia HTS, fibrin stimulation; decreased size (<150 μm^2) as marker of toxicity;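 note: share of dead cells sized under 150 µm2 at 10 µM in fibrin-stimulated microglia HTS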
[4] = tested on: LPS-induced microglia activation; experiment: Image-based assay of LPS-induced microglia activation (HTS and dose response); assay type: cell-based, rat; conditions: primary microglia HTS, LPS stimulation, increased cell size (>800 μm^2) as marker of activation; for inhibition at 10 µM: Rattus norvegicus, Microglia, 48 h, read-out: LPS % inhibition
primary rat microglia [5] = experiment: Cell toxicity (dead cells, size <150 μm2) in LPS assay; conditions: primary microglia HTS, LPS stimulation; decreased size (<150 μm^2) as marker of toxicity

Compound	Quadrant (FIG. 5b) [1]	inhibition at 10 µM [2]	Fibrin % cell toxicity (primary rat microglia [3])	inhibition at 10 µM [4]	LPS % cell toxicity (primary rat microglia [5])	Fibrin % inhibition [2]	LPS % inhibition [4]
CN1C(C(=O)Nc2ccccn2)=C(O)c2sc(Cl)cc2S1(=O)=O [Lornoxicam]	Q4	22%	0%	10%	1%	–	–
CN1CCN(C2=Nc3ccccc3Oc3ccc(Cl)cc32)CC1 [Loxapine]	Q4	-41%	0%	9%	0%	–	–
CC(C(=O)O)c1ccc(CC2CCCC2=O)cc1 (stereo not drawn) [Loxoprofen]	Q4	-19%	1%	10%	0%	–	–
O=C(NC(=O)c1c(F)cccc1F)Nc1cc(Cl)c(OC(F)(F)C(F)C(F)(F)F)cc1Cl (stereo not drawn) [Lufenuron]	Q4	15%	1%	13%	0%	–	–
Cc1ccc(Nc2c(F)cccc2Cl)c(CC(=O)O)c1 [Lumiracoxib]	Q4	14%	1%	18%	0%	–	–
NCc1ccc(S(N)(=O)=O)cc1 [Mafenide]	Q4	10%	1%	-3%	0%	–	–
CCOC(=O)CC(SP(=S)(OC)OC)C(=O)OCC (stereo not drawn) [Malathion]	Q4	-8%	0%	8%	0%	–	–
Cc1ncc(COP(=O)([O-])[O-])c(CN(CCN(CC(=O)[O-])Cc2c(COP(=O)([O-])[O-])cnc(C)c2[O-])CC(=O)[O-])c1[O-].[H+].[H+].[H+].[Mn+2].[Na+].[Na+].[Na+] [Mangafodipir Trisodium]	Q4	–	1%	–	0%	1%	11%
COC(=O)C1=C(C)NC(C)=C(C(=O)OCCN2CCN(C(c3ccccc3)c3ccccc3)CC2)C1c1cccc([N+](=O)[O-])c1 (stereo not drawn) [Manidipine Hydrochloride]	Q4	-43%	1%	12%	1%	–	–
OC[C@@H](O)[C@@H](O)[C@H](O)[C@H](O)CO [Mannitol]	Q4	5%	1%	0%	0%	–	–
CCN(CCCCOC(=O)c1ccc(OC)c(OC)c1)C(C)Cc1ccc(OC)cc1 (stereo not drawn) [Mebeverine]	Q4	-11%	0%	7%	0%	–	–
CN1CCc2c(c3ccccc3n2Cc2ccccc2)C1.CN1CCc2c(c3ccccc3n2Cc2ccccc2)C1.O=S(=O)(O)c1cccc2c(S(=O)(=O)O)cccc12 [Mebhydrolin Naphthalenesulfonate]	Q4	–	1%	–	0%	4%	17%
Cc1cccc(CN2CCN(C(c3ccccc3)c3ccc(Cl)cc3)CC2)c1 (stereo not drawn) [Meclizine]	Q4	-33%	0%	12%	0%	–	–
C=C1c2c(Cl)ccc(O)c2C(=O)C2=C(O)[C@]3(O)C(=O)C(C(N)=O)=C(O)[C@@H](N(C)C)[C@@H]3[C@@H](O)[C@H]12.O=C(O)c1cc(S(=O)(=O)O)ccc1O [Meclocycline Sulfosalicylate]	Q4	–	1%	–	0%	20%	18%
Cc1ccc(Cl)c(Nc2ccccc2C(=O)O)c1Cl [Meclofenamic Acid]	Q4	12%	1%	14%	0%	–	–
CN(C)CCOC(=O)COc1ccc(Cl)cc1 [Meclofenoxate]	Q4	-23%	1%	24%	0%	–	–
COC(=O)C(N)CS (stereo not drawn) [Mecysteine Hydrochloride]	Q4	20%	1%	22%	0%	–	–
CC(=O)[C@H]1CC[C@H]2[C@@H]3C[C@H](C)C4=CC(=O)CC[C@]4(C)[C@H]3[C@@H](O)C[C@]12C [Medrysone]	Q2	111%	4%	87%	4%	–	–
